Assay results published in patent publication US20110008394A1, “ACTIVE SUBSTANCES THAT INCREASE THE ACTIVATION THRESHOLD OF IMMUNE CELLS” (BASF Beauty Care Solutions France S.A.S., priority 2008, published 2011).

Columns and labels:
[1] = tested on: CD86 on LCs/DDCs stimulated with LPS and TNFα; experiment: Response to a danger signal: LCs/DDCs pretreated with active principles, then stimulated with LPS + TNFα without them, CD86 by flow cytometry; type: cell-based, human; conditions: for RESPONSE CAPACITY: capacity for response to a danger signal, proportional to residual CD86 after pretreatment + stimulation (stimulation alone 143%); for RESIDUAL EXPRESSION OF CD86 AFTER PRETREATMENT + STIMULATION: pretreated, then recultured 48 hours without active principle with LPS 50 μg/mL + TNFα 10 μg/mL, untreated unstimulated control = 100%
Description: As in Example 8, we checked that the LCs/DDCs are capable of responding to a danger signal, for example a bacterial infection, when they have been treated beforehand with the active principles and when they are no longer being treated. To do this, we checked that the LCs/DDCs treated with the said active principles, and then stimulated with LPS and TNFα (in the absence of the active principles), are capable of overexpressing the co-stimulation molecule CD86 after this stimulation.
(§1) The flow cytometry study proceeds in the following manner:
(§2) 1/ The immature LCs/DDCs are generated as described in Example 1 and step 3.
(§3) 2/ The cells are inoculated in P24-well plates, at a rate of 400 000 cells per cm^2, and in the culture medium described in Example 3. The treatment of the cells with the active principles is described in Example 3.
3/ The cells treated with the active principles are then recultured, without the active principles and in the culture medium described in Example 3, for a further 48 hours. A mixture of LPS (at 50 μg/mL advantageously) and of TNFα (at 10 μg/mL advantageously) is added to the said culture medium. The cells are then analysed by flow cytometry, as described in Example 6, to quantify the residual expression of the molecule CD86 after “pretreatment+stimulation”.
The results are expressed in the following manner: the control not treated with the active agent and not stimulated with LPS and TNFα is referenced at 100% expression of the molecule CD86, and the tests are expressed as the residual expression of the molecule CD86 after “stimulation” and after “pretreatment+stimulation”. We also calculated the level of capacity for response to a danger signal, which is proportional to the residual expression of CD86 after pretreatment+stimulation.

immature LCs/DDCs = experiment: Cell viability (cytotoxicity) test, 7-AAD dye, flow cytometry; type: cell-based; conditions: 24 hour treatment
Protocol: The active principles have a cytotoxic effect when the cell viability is less than 75% after treatment with the said active agents.
The LCs/DDCs, as described in Example 1 and step 3, are inoculated into P96-well plates, at a rate of 200 000 cells/well, and in the culture medium described in Example 3. The treatment of the cells with the active principles is described in Example 3.
After treatment with the said active principles, the cells are incubated with 5 μl of dye 7-AAD (7-aminoactinomycin D) per well. After incubation for 5 minutes, the cells are analysed by flow cytometry.
The cell viability is expressed as a percentage of viable cells or negative 7-AAD, the dye not penetrating the membranes that are impermeable. This analysis technique also makes it possible to visualize the cells positively marked with 7-AAD, i.e. the cells that have undergone a cytotoxic effect via the active agent.
The negative controls are either the culture medium alone, or the culture medium containing the solvent used during the process for extracting the extracts tested at the concentration equivalent to that of the active agents tested. The reference positive control used in order to induce a mortality of the LCs/DDCs is camptothecin at a concentration of 4 μM final.

[2] = tested on: messenger RNAs coding for CD86 in immature LCs/DDCs; experiment: Expression of messenger RNAs coding for CD86 in treated immature LCs/DDCs, quantitative RT-PCR; type: cell-based, human; conditions: 10^-7M, 24 hour treatment; for RESIDUAL EXPRESSION OF CD86: messenger RNA relative to actin, untreated control = 100%; for LEVEL OF IMMUNOREPRESSION: from CD86 messenger RNA, closer to 1 = stronger
Description: Quantitative RT-PCR makes it possible to quantify the expression of the messenger RNAs coding for the protein CD86 in the LCs/DDCs treated or not treated with the said active agents.
The study of the immunorepressive properties of the cosmetic active principles by quantitative RT-PCR proceeds in the following manner:
as §2, §3
3/ After treatment with the active principles, the cells are recovered and stored, for example by dry-freezing at −80° C. after rinsing with pH 7.4 phosphate buffer.
4/ The total RNA of the cells is extracted, for example using a 96-well extraction kit on silica columns, and assayed on e96-well spectrophotometer at 260 nm (purity indicator: assay of the proteins at 280 nm). The RNAs are diluted, for example, to 5 ng/μl.
5/ The […] RT-PCR in step 1 is performed, for example, on 50 ng of initial RNA on a 96-well plate, on the genes for actin and for the molecule CD86. The specific primers for each gene are specified in Table 7 below and are used, for example, at 0.5 μM.
The amplification parameters were advantageously the following: the real-time RT-PCR technique is performed with the Quanti Tect SYBR Green RT-PCR kit (Qiagen, France) on the wells containing the messenger RNA, in an Opticon thermocycler, which performs the amplification cycles. The reverse transcription (RT) is performed for 30 minutes at 50° C., followed by 15 minutes at 95° C. to inhibit the reverse transcriptase, to activate the polymerase and to denature the complementary DNA (cDNA) obtained. 50 cycles of chain polymerization (PCR) are performed (15 seconds at 95° C., 30 seconds at 60° C., 30 seconds at 72° C.). At the end of each cycle, the fluorescence, which is proportional to the number of amplified fragments, is read. The level of expression is defined by the ratio of expression of each gene relative to actin.
The results are expressed in the following manner: the untreated control is referenced at 100% expression of the messenger RNAs coding for the molecule CD86, and the tests are expressed as the level of expression of the messenger RNAs coding for CD86 as a percentage of variation relative to those obtained for the negative control.

[3] = tested on: CD86 on LCs/DDCs stimulated with LPS and TNFα; experiment: Response to a danger signal: LCs/DDCs simultaneously treated with active principles and stimulated with LPS + TNFα, CD86 by flow cytometry; type: cell-based, human; conditions: for RESIDUAL EXPRESSION OF CD86 AFTER TREATMENT: active principle alone, no stimulation; for RESIDUAL EXPRESSION OF CD86 AFTER TREATMENT / RESIDUAL EXPRESSION OF CD86 AFTER TREATMENT + STIMULATION: untreated unstimulated control = 100%; for RESPONSE CAPACITY: capacity for response to a danger signal, proportional to residual CD86 after treatment + stimulation (stimulation alone 143%); for RESIDUAL EXPRESSION OF CD86 AFTER TREATMENT + STIMULATION: simultaneous active principle and LPS 50 μg/mL + TNFα 10 μg/mL
Protocol: Evaluation of the immunorepressive potential of the active principles also requires a study of the capacity of the LCs/DDCs to respond to a danger signal, for example a bacterial infection, when they are treated with the said active principles. Specifically, we checked that the LCs/DDCs that are simultaneously treated with the active principles and activated by a danger signal are still competent in their function of recognition of danger signals. To do this, we checked that the LDs/DDCs simultaneously treated with the active principles and stimulated with LPS and TNFα are capable of overexpressing the co-stimulation molecule CD86 after this stimulation.
as §1, §2
2/ The cells are inoculated in P24-well plates, at a rate of 400 000 cells per cm^2, and in the culture medium described in Example 3. A mixture of LPS (at 50 μg/mL advantageously) and of TNFα (at 10 μg/mL advantageously) is added to the said culture medium. Simultaneously, the cells are treated with the active principles as described in Example 3.
3/ The cells that have been simultaneously treated with the active principles and stimulated with LPS and TNFα are analysed by flow cytometry, as described in Example 6, to quantify the residual expression of the molecule CD86 after “treatment+stimulation”.
The results are expressed in the following manner: the control not treated with the active agent and not stimulated with LPS+TNFα is referenced at 100% expression of the molecule CD86, and the tests are expressed as the residual expression of the molecule CD86 after “treatment”, after “treatment+stimulation” and “stimulation”. We also calculated the level of capacity for response to a danger signal, which is proportional to the residual expression of CD86 after treatment+stimulation.

[4] = tested on: CD86 on immature LCs/DDCs; experiment: Protein expression of CD86 on treated immature LCs/DDCs, flow cytometry; type: cell-based, human; conditions: for RESIDUAL EXPRESSION OF CD86: protein, untreated control = 100%; for LEVEL OF IMMUNOREPRESSION: inversely proportional to residual CD86 protein expression, closer to 1 = stronger
Protocol: The study of the immunorepressive properties of the cosmetic active principles by flow cytometry proceeds in the following manner:
as §2
2/ The cells are inoculated in P24-well plates, at a rate of 400 000 cells per cm^2, and in the culture medium described in Example 3.
4/ The cells are then incubated for 30 minutes with an anti-CD86 monoclonal antibody coupled to a fluorochrome, such as phycoerythrin (advantageously 10 μl of anti-CD86 antibody/well). The negative marking control corresponds to the IgG1 control isotype. After this marking step, the cells are rinsed with the said marking buffer, and then analysed by flow cytometry.
The level of immunorepression, which is inversely proportional to the residual expression of CD86, was also calculated.

[5] = 10^-7M, % viable (7-AAD negative) cells
[6] = 5 × 1^0^-^7M, dose/effect study

| Compound | RESPONSE CAPACITY [1] | RESIDUAL EXPRESSION OF CD86 AFTER PRETREATMENT + STIMULATION [1] [%] | CYTOTOXIC EFFECT (immature LCs/DDCs; 10^-7M) | CELL VIABILITY (immature LCs/DDCs; [5]) [%] | RESIDUAL EXPRESSION OF CD86 [2] [%] | LEVEL OF IMMUNOREPRESSION [2] | RESIDUAL EXPRESSION OF CD86 AFTER TREATMENT [3] [%] | RESPONSE CAPACITY [3] | RESIDUAL EXPRESSION OF CD86 AFTER TREATMENT + STIMULATION [3] [%] | RESIDUAL EXPRESSION OF CD86 [4, 6] [%] | RESIDUAL EXPRESSION OF CD86 ([4]; 5 × 10^-8M, dose/effect study) [%] | RESIDUAL EXPRESSION OF CD86 ([4]; 10^-6M, dose/effect study) [%] | RESIDUAL EXPRESSION OF CD86 ([4]; 10^-7M, 24 hour treatment) [%] | LEVEL OF IMMUNOREPRESSION ([4]; 10^-7M, 24 hour treatment) | CELL VIABILITY (immature LCs/DDCs; 3 μm, positive control) [%] | CYTOTOXIC EFFECT (immature LCs/DDCs; 3 μm, positive control) | RESIDUAL EXPRESSION OF CD86 ([4]; 10^-8M, 24 hour treatment) [%] | LEVEL OF IMMUNOREPRESSION ([4]; 10^-8M, 24 hour treatment) |
| --- | --- | --- | --- | --- | --- | --- | --- | --- | --- | --- | --- | --- | --- | --- | --- | --- | --- | --- |
| Foliosidine acetonide | 0.84 | 120 | NO (The active principles have a cytotoxic effect when the cell viability is less than 75% after treatment with the said active agents) | >95 | 91 | 0.09 | 85 | 0.81 | 116 | 80 | 85 | 83 | 85 | 0.17 |  |  |  |  |
| CC[C@@]1(O)C(=O)OCc2c1cc1n(c2=O)Cc2cc3ccccc3nc2-1 [Camptothecin, reference compound] |  |  |  |  |  |  |  |  |  |  |  |  |  |  | 35 | YES (The active principles have a cytotoxic effect when the cell viability is less than 75% after treatment with the said active agents) |  |  |
| COc1cc2c(cc1OC)-c1cc3cc(OC)c(OC)cc3c(=O)n1CC2 [8-Oxopseudopalmatine] | 0.89 | 127 | NO (The active principles have a cytotoxic effect when the cell viability is less than 75% after treatment with the said active agents) | 94 | 59 | 0.41 | 81 | 0.85 | 121 | 92 | 100 | 85 | 81 | 0.14 |  |  |  |  |
| O=C1C=C2C=C[C@@H]3C[C@@]2(O1)[C@H]1CCCCN31 [Securinine] | 0.88 | 126 | NO (The active principles have a cytotoxic effect when the cell viability is less than 75% after treatment with the said active agents) | 94 | 74 | 0.26 | 83 | 0.98 | 140 | 100 | 90 | 100 | 83 | 0.10 |  |  |  |  |
| C[C@@H]1C[C@H]2[C@@H]3CCC4=CC(=O)C=C[C@]4(C)[C@@]3(F)[C@@H](O)C[C@]2(C)[C@@]1(O)C(=O)CO [Dexamethasone, reference compound] | 0.91 | 130 |  |  |  |  | 50 | 0.52 | 75 |  |  |  |  |  |  |  | 50 | 0.5 |
